Measured values published in PubChem BioAssay (NCI).
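Growth conditions: 96-well plates. Treatment: test compound, 48 hours, 5 concentrations. Analysis: linear interpolation between bracketing concentrations; unreached endpoints set to highest concentration. GI50: concentration for 50% inhibition of growth. TGI denotes the concentration required for complete inhibition of growth.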

Experiments:
Assay in all cases: NCI anticancer screen, dose series, 48 h
COLO 205 colon = system: COLO 205 colon
HCC-2998 colon = system: HCC-2998 colon
IGROV1 ovarian = system: IGROV1 ovarian
K-562 leukemia = system: K-562 leukemia
NCI-H23 lung = system: NCI-H23 lung
SK-MEL-5 melanoma = system: SK-MEL-5 melanoma
SK-OV-3 ovarian = system: SK-OV-3 ovarian
SNB-19 CNS = system: SNB-19 CNS
SW-620 colon = system: SW-620 colon
U251 CNS = system: U251 CNS

| Structure (SMILES) | GI50 (COLO 205 colon) [µM] | TGI (COLO 205 colon) [µM] | GI50 (HCC-2998 colon) [µM] | TGI (HCC-2998 colon) [µM] | GI50 (IGROV1 ovarian) [µM] | TGI (IGROV1 ovarian) [µM] | GI50 (K-562 leukemia) [µM] | GI50 (NCI-H23 lung) [µM] | TGI (NCI-H23 lung) [µM] | GI50 (SK-MEL-5 melanoma) [µM] | TGI (SK-MEL-5 melanoma) [µM] | GI50 (SK-OV-3 ovarian) [µM] | TGI (SK-OV-3 ovarian) [µM] | GI50 (SNB-19 CNS) [µM] | TGI (SNB-19 CNS) [µM] | GI50 (SW-620 colon) [µM] | TGI (SW-620 colon) [µM] | GI50 (U251 CNS) [µM] | TGI (U251 CNS) [µM] | TGI (K-562 leukemia) [µM] |
| --- | --- | --- | --- | --- | --- | --- | --- | --- | --- | --- | --- | --- | --- | --- | --- | --- | --- | --- | --- | --- |
| CC[C@@]1(O)C(=O)NCc2c1cc1n(c2=O)Cc2cc3c(N)cccc3nc2-1 | 8.35 | > 48.1 | 2.04 | 9.24 | 10.1 | > 100 | 3.09 | 0.942 | 15.1 | 1.23 | 17.3 | 4.54 | > 86.1 | 2.93 | > 50.7 | 4.16 | > 100 | 2 | > 46.8 | – |
| COc1cccc(C(=O)N2CCc3ccccc32)c1OC | – | > 100 | – | > 100 | – | > 100 | – | – | > 100 | – | > 100 | – | > 100 | – | > 100 | – | > 100 | – | > 100 | > 100 |
| Clc1ccc2[nH]cc(-c3nc(-c4c[nH]c5ncccc45)cs3)c2c1 | 1.73 | 13.3 | 4.63 | 21.8 | 3.04 | 28.6 | 2.42 | 3.34 | 20.5 | 2.98 | 12.5 | 6.16 | 39 | 5.97 | 43.9 | 3.08 | 11.6 | 3.17 | 13.2 | > 100 |
| COc1cc(/C=C\[N+](=O)[O-])ccc1OCc1ccccc1 | 1.67 | 3.37 | 1.86 | 3.63 | 2.48 | 7.6 | 2.06 | 2.07 | 5.26 | 1.4 | 3.05 | 4.65 | 15.2 | 2.64 | 8.41 | 1.49 | 4.02 | 1.55 | 3.01 | 11.1 |
| OCCSCc1ccccc1 | – | > 100 | – | > 100 | – | > 100 | – | – | > 100 | – | > 100 | – | > 100 | – | > 100 | – | > 100 | – | > 100 | > 100 |
| O=C(Nc1ccc(F)cc1)c1c(NC(=O)C(F)(F)F)sc2c1CCCCC2 | 1.55 | 3.59 | 2.06 | 10 | 2.99 | 15.5 | 1.97 | 2 | 8.82 | 0.592 | 2.1 | 2.05 | 6.37 | 1.56 | 21.4 | 2.51 | 11.9 | 1.73 | > 100 | > 100 |
| Nc1ccc(S(=O)(=O)C23CC4CC(CC(C4)C2)C3)cc1 | – | > 100 | – | > 100 | – | > 100 | – | – | > 100 | – | > 100 | – | > 100 | – | > 100 | – | > 100 | – | > 100 | > 100 |
| COC(=O)c1sc(C(=O)OC)c2c1CSC2 | – | > 100 | – | > 100 | – | > 100 | – | – | > 100 | – | > 100 | – | > 100 | – | > 85.8 | – | > 100 | – | > 81 | > 100 |
| Cc1cc(C)c(C[N+](C)(C)C)c(C)c1C | 0.236 | 1.85 | 0.521 | 12.4 | 0.477 | > 95.7 | 0.416 | 0.395 | 12.3 | 0.209 | 2.82 | 0.499 | 11.2 | 0.351 | > 64.5 | 0.32 | > 100 | 0.307 | 34.7 | > 100 |
| Nc1nnc2cc(Cl)ccc2n1 | > 100 | > 100 | > 100 | > 100 | 34.3 | > 100 | > 100 | > 100 | > 100 | > 100 | > 100 | > 100 | > 100 | > 100 | > 100 | > 100 | > 100 | > 100 | > 100 | > 100 |
| O=C(O)/C(=C/c1c(O)ccc2ccccc12)c1csc(-c2nc(/C(=C\c3c(O)ccc4ccccc34)C(=O)O)cs2)n1 | – | 31.4 | – | 32.4 | – | 24.1 | – | – | 27.1 | – | 37.1 | – | 26.8 | – | 43 | – | 59 | – | 30.3 | 38.6 |
